Laboratory results from article PMC10693528, “A high-throughput metabolomics in vitro platform for the characterization of hepatotoxicity” (Cell Biology and Toxicology, 2023).
Marks after values point to notes of the source that are not given here.

Tested on: HepG2 cells
Assay: Range finder cell viability (CellTiter-Glo, ATP) dose response
Type: cell-based, human
Settings: estimated from ATP dose response curve, 48 h, rounded; for EC50: Homo sapiens, HepG2
Description: HepG2 cells (ECACC, UK, maximum passage number 9) were maintained and grown on Dulbecco’s MEM media supplemented with 1% v/v of penicillin/streptomycin, L-glutamine (200 mM, 1% v/v), non-essential amino acids (100x, 1% v/v), and 10% FBS (PAN-Biotech, Aidenbach, Germany) in 75 cm^2 culture flasks (TPP, Switzerland). For cell passaging (~ 80% confluency) media was removed and cells were washed twice with pre-warmed calcium and magnesium free Dulbecco’s PBS (PAN-Biotech, Aidenbach, Germany). Trypsin was used for cell detachment. Then, 20 mL culture medium was added, and single-cell suspensions were obtained by passing the suspension through a Combitip (Eppendorf, Germany). A fraction of the cell suspension was then transferred to a new culture vessel. For experiments, 15,000 cells per well (passage 5-9) were seeded in 96-well flat-bottom plates (TPP, Switzerland) and incubated for 24 h for cell attachment (37 °C and 5% CO^2). Afterwards, culture media were exchanged, test substances applied, and plates incubated for 48 h (37 °C and 5% CO^2).
In order to define appropriate dose levels, range finder experiments were performed prior to metabolome experiments. Substances were administered to HepG2 cells in increasing concentrations and incubated for 48 h (6 replicates per concentration). Viability and cytotoxicity tests were performed as described previously. Luminescence values resulting from CellTiter-Glo® assays were used to build dose response curves. Curve fitting and effective concentrations (ECs) values were calculated in R using three-parameter Weibull model (W1.3). To obtain a full metabolome-based dose-response effect, five concentrations (EC1, EC5, EC15, EC50, EC85) were selected for metabolome experiments (Table 2). […] Calculated ECs values were rounded to the nearest integer number for dose selection.

Compound: CCC(CC)Nc1c([N+](=O)[O-])cc(C)c(C)c1[N+](=O)[O-] [Pendimethalin]
- EC50: 94 µM
- EC1: 24 µM
- EC5: 39 µM
- EC15: 56 µM
- EC85: 157 µM

Compound: O=c1cc(-c2ccccc2)oc2ccc3ccccc3c12 [β-naphthoflavone]
- EC50: 100 µM
- EC1: 0.1 µM
- EC5: 1 µM
- EC15: 10 µM
- EC85: 700 µM

Compound: O=C(O)c1cc(Oc2ccc(C(F)(F)F)cc2Cl)ccc1[N+](=O)[O-] [Acifluorfen]
- EC50: 500 µM
- EC1: 50 µM
- EC5: 100 µM
- EC15: 200 µM
- EC85: 800 µM

Compound: Cc1cccc(Nc2cc(Cl)nc(SCC(=O)O)n2)c1C [Wy-14643]
- EC50: 500 µM
- EC1: 25 µM
- EC5: 50 µM
- EC15: 150 µM
- EC85: 1000 µM

Compound: CC(=O)N1CCN(c2ccc(OCC3COC(Cn4ccnc4)(c4ccc(Cl)cc4Cl)O3)cc2)CC1 (stereo not shown) [Ketoconazole]
- EC50: 10 µM
- EC1: 5^b μM
- EC5: 0.2 µM
- EC15: 1 µM
- EC85: 50 µM
